Calls of active or inactive are those of the source.
Tests used:
[1] = TRPM1 promoter luciferase reporter signal decrease, dose response, MITF inhibitor project, cell-based, SK-MEL-5, dry powder, set 9 (AID 651588); format: functional
[2] = A375 melanoma cell viability loss, dose response, counter-screen for MITF inhibitor project, CellTiter-Glo luminescence, dry powder, set 4 (AID 624364); format: functional, cell-based; conditions: A-375;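 also: A375 melanoma cells are MITF independent so this is a counter screen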
[3] = A375 melanoma cell cytotoxicity, dose response, counter-screen for MITF inhibitor project, CellTiter-Glo luminescence, dry powder, set 7 (AID 624490); format: functional, cell-based; conditions: A-375
[4] = MITF Orthogonal Assay: MALME3 CTG Assay Measured in Cell-Based System Using Plate Reader - 2084-04_Inhibitor_Dose_DryPowder_Activity_Set6.; format: functional; conditions: MALME-3
[5] = SK-MEL-5 parental cell viability reduction, dose response, orthogonal assay for MITF inhibitor project, CellTiter-Glo luminescence, dry powder, set 8 (AID 651586); format: functional, cell-based
[6] = MALME3 melanoma cell viability reduction, dose response, orthogonal assay for MITF inhibitor project, CellTiter-Glo luminescence, dry powder, set 5 (AID 651584); format: functional, cell-based; conditions: MALME-3
[7] = SK-MEL-5 parental line viability, dose response, MITF inhibitor project, cell-based, CellTiter-Glo, dry powder, set 6 (AID 624429); format: functional
[8] = MITF Orthogonal Assay: SK-MEL-5 CTG Assay Measured in Cell-Based System Using Plate Reader - 2084-02_Inhibitor_Dose_DryPowder_Activity_Set5.; format: functional
[9] = MITF Measured in Cell-Based System Using Plate Reader - 2084-01_Inhibitor_Dose_DryPowder_Activity_Set6.; format: functional
[10] = MITF Measured in Cell-Based System Using Plate Reader - 2084-01_Inhibitor_Dose_DryPowder_Activity_Set7.; format: functional
[11] = cytotoxicity in primary human melanocytes, dose response, cytotoxicity control, cell-based, plate reader, dry powder (AID 651920); format: functional
[12] = molecular target: Paired box protein Pax-8 (Homo sapiens, UniProt Q06710); assay: inhibitors of PAX8-driven TPO luciferase reporter, dose response, RMG-I cells, cherry-pick (AID 687027); format: functional, cell-based;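 also: luciferase reporter driven by Pax8 target thyroperoxidase promoter measured by SteadyGlo luminescence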
[13] = IOSE-T80 ovarian epithelial cell cytotoxicity, dose response, cytotoxicity control for PAX8 inhibitor project, plate reader, dry powder samples (AID 743045); format: functional, cell-based
[14] = NIH:OVCAR-3 ovarian cancer cell cytotoxicity, dose response, PAX8 inhibitor project, plate reader, dry powder samples (AID 743044); format: functional, cell-based
[15] = IGROV1 ovarian cancer cell cytotoxicity, dose response, PAX8 inhibitor project, plate reader, dry powder samples (AID 743043); format: functional, cell-based; conditions: IGROV-1
[16] = cytotoxicity in OVCAR8 ovarian cancer cells, dose response, PAX8 project, cell-based, plate reader, dry powder samples (AID 743197); format: functional; conditions: OVCAR-8
[17] = HEK293T cell cytotoxicity, dose response, cytotoxicity control, CellTiter-Glo luminescence, dry powder, set 2 (AID 720595); format: functional, cell-based; conditions: HEK293
[18] = HeLa cell cytotoxicity, dose response, cytotoxicity control, CellTiter-Glo luminescence, dry powder, set 2 (AID 720593); format: functional, cell-based
[19] = AlphaScreen signal interference by compounds, dose response, artefact control for ARNT/TACC3 disruptor project, biochemical, dual-tagged ARNT, dry powder (AID 720564)
[20] = cytotoxicity in HepG2 cells, dose response, cytotoxicity control, cell-based, plate reader, dry powder (AID 651947); format: functional
[21] = HEK293 cell cytotoxicity, dose response, cytotoxicity control, cherry-picks, set 5 (AID 1053117); format: functional, cell-based
[22] = A549 cell cytotoxicity, dose response, cytotoxicity control, cherry-picks, 26 µM top dose (AID 1053119); format: functional, cell-based
[23] = inhibitors of fibronectin matrix deposition, dose response, AH1F cells, Alexa488-FN fluorescence, cherry-picks (AID 1035475); format: functional, cell-based
[24] = A549 cell cytotoxicity, dose response, cytotoxicity control, 24 h, CellTiter-Glo luminescence, cherry-picks (AID 1053115); format: functional, cell-based; conditions: A549, 24 h
[25] = HeLa 2N DNA content increase, dose response, cell-based, IC50 (AID 1117349); format: functional
[26] = Concentration-dependent survival of SW480 colon cancer line, luminescence detection with CellTiter-Glo, half-maximal inhibitory concentration (AID 1117338); format: functional
[27] = RKO cell viability reduction, dose response, CellTiter-Glo luminescence (AID 1117322); format: functional
[28] = cytotoxicity toward HCT116 cells – cell-based, CellTiter-Glo luminescence, IC50, dose response (AID 1117332); format: functional; conditions: HCT-116
[29] = SNU-C1 cell viability reduction, dose response, CellTiter-Glo luminescence (AID 1117323); format: functional, cell-based
[30] = cytotoxicity toward Colo320 cells – cell-based, CellTiter-Glo luminescence, IC50, dose response (AID 1117334); format: functional; conditions: COLO 320
[31] = HeLa 4N DNA content increase, dose response, cell-based, IC50 (AID 1117351); format: functional
[32] = cytotoxicity toward HT-29 cells – cell-based, CellTiter-Glo luminescence, IC50, dose response (AID 1117330); format: functional
[33] = CellTiter-Glo luminescent dose response of DLD-1 viability loss (AID 1117352); format: functional
[34] = HCT116 cell viability decrease, GSK3B pretreatment – CellTiter-Glo, IC50, dose response (AID 1117339); format: functional; conditions: HCT-116

Sequence of Paired box protein Pax-8 (Q06710 whole entry): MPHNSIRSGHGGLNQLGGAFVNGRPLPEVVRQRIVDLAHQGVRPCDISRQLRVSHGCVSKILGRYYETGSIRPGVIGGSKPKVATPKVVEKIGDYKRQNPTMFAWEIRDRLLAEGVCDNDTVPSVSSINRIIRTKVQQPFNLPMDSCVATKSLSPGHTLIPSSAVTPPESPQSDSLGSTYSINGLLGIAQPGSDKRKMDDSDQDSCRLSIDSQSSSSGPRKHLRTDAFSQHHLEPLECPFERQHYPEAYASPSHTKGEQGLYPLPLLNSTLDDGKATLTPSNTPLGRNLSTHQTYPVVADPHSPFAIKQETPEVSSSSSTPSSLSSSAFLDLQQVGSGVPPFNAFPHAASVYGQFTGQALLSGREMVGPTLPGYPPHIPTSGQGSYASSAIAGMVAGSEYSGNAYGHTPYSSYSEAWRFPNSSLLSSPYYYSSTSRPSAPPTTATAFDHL

In the case of `O=C1C=C(NS(=O)(=O)c2ccccc2)C(=O)c2ccccc21`, the AC50 [1] is reported as 13 µM (active), the AC50 [2] is reported as > 70 µM (inactive) and the AC50 [3] is reported as > 70 µM (inactive). The AC50 [4] was 21.3 µM (active), the AC50 [5] was 18.4 µM (active) and the AC50 [6] was 21.3 µM (active). The AC50 [7] was 10.5 µM (active), the AC50 [8] was 10.3 µM (active) and the AC50 [9] was 3.04 µM (active). The AC50 [10] was 4.57 µM (active) and the AC50 [11] was 59.4 µM (active).
In the case of `O=C(NC1CCCCC1)N1C[C@@H]2N[C@H](C1)[C@@H]2c1ccc(-c2ccc(F)cc2)cc1`, the AC50 [12] is reported as 17.2 µM (active), the AC50 [13] is reported as 45.7 µM (active) and the AC50 [14] is reported as 22 µM (active). For the same compound, the AC50 [15] was 63.7 µM (active) and the AC50 [16] was > 70 µM (inactive).
In the case of `O=C(Nc1nnc(-c2ccc(F)cc2)o1)c1ccc(S(=O)(=O)N2CCCCC2)cc1`, the AC50 [17] is reported as 2.51 µM (active), the AC50 [18] is reported as 46.1 µM (active) and the AC50 [19] is reported as 72.4 µM (active).
In the case of `FC(F)(F)c1ccc(CSc2nnc(-c3ccccc3)o2)cc1`, the AC50 [20] is reported as 0.223 µM (active).
With `N#Cc1ccc(-c2ccc3c(c2)[C@H]2[C@H](CCN2S(=O)(=O)c2cccc(F)c2)[C@H](CO)N3)cc1` the AC50 [21] was 32.6 µM (active), the AC50 [22] was 33.6 µM (active) and the AC50 [23] was 5.71 µM (active).
With `COc1ccccc1CN1CC[C@@H]2[C@H](CO)Nc3ccc(C#Cc4ccccc4)cc3[C@@H]21` the AC50 [24] was > 60 µM (inactive).
With `O=C(O)CN(CCN(CC(=O)O)CC(=O)O)CCN(CC(=O)O)CC(=O)O` [PENTETIC ACID] the IC50 [25] was > 10 µM (inactive), the IC50 [26] was 3.14 µM (active) and the IC50 [27] was 2.96 µM (active). The IC50 [28] was > 6.67 µM (inactive), the IC50 [29] was > 20 µM (inactive) and the IC50 [30] was > 20 µM (inactive). For the same compound, the IC50 [31] was > 10 µM (inactive), the IC50 [32] was > 20 µM (inactive) and the IC50 [33] was > 20 µM (inactive). The IC50 [34] was 0.896 µM (active).
